Assay results from patent US10647680B2, “Urea compound, preparation method therefor and medical use thereof” (Ancureall Pharmaceutical (Shanghai) Co., Ltd., priority 2016, dated 2020).

How the values were obtained:
Assay type in all cases: cell-based
[1] = tested on: Kasumi-1 (c-Kit N822K mutant type); assay: In vitro growth inhibition (GI50), Kasumi-1; settings: Homo sapiens, Cell lines of leukemia, read-out: GI 50 Kasumi-1 Kit (N822K)
Summary of the method: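 Cells in RPMI1640 with 10% FBS, seeded at 5–10×10^4 cells/mL, exposed next day to compound at 5,000 nM down to 0.01 nM (2- or 10-fold dilutions, ≤1% solvent) for 3–5 days at 37 °C. CCK8 absorbance at 450 nm, growth rate relative to pre-treatment and solvent controls, GI50 from concentration–growth curve.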

[2] = tested on: NCI-H2170 (HER2/ErbB2 amp); assay: In vitro growth inhibition (GI50), NCI-H2170; settings: Homo sapiens
Source text: (§1) Tumor cell line is an effective cell model for studying the inhibition of tumor cell growth or proliferation in vitro. In the present invention, a representative tumor cell line was selected to determine the cell growth inhibition activity of the present compound. All cell lines used were from ATCC, DSMZ, and the Cell Bank of the Chinese Academy of Sciences. Cell culture conditions and methods were in accordance with the requirements of each cell line. Cells were subcultured in vitro for no more than 3 passages each time, and as required, single-clone purification and identification of cell lines could be carried out.
(§2) The cell culture media used were RPMI1640 (Gibco), MEM (Gibco), McCOY'S5A (Gibco), and IMDM (Gibco). The complete medium was prepared by supplement with 5˜20% fetal calf serum (Gibco), 1% double-antibiotics (10000 units/mL penicillin and 10000 units/mL), 2 mM glutamine or 1 mM sodium pyruvate, respectively.
Human gastric cancer cell line NCI-N87 (HER2/ErbB2 amp, ATCC), human breast cancer cell line HCC1954 (HER2/ErbB2 amp, ATCC) and ZR-75-30 (HER2/ErbB2 amp, ATCC), human adenocarcinoma cell line AU565 (HER2/ErbB2 amp, ATCC), human lung squamous cell carcinoma cell line NCI-H2170 (HER2/ErbB2 amp, ATCC), human bronchioalveolar adenocarcinoma cell line NCI-H1781 (HER2/ErbB2 Ins G776V,C mutant type, ATCC) were cultured with a 1×RPMI1640 complete medium (10% FBS), respectively. Human lung adenocarcinoma cell line Calu-3 (HER2/ErbB2 amp, ATCC) was cultured with 1×MEM, 10% FBS, 1% double antibody, 1% NEAA (Gibco), 2 mM glutamine and 1 mM sodium pyruvate. The human breast cancer cell line SK-BR-3 (HER2/ErbB2 amp, ATCC) was cultured with a McCOY'S5A complete medium (10% FBS).
(§3) Adherent cells were digested with 0.25% pancreatin-EDTA (Gibco). The suspension cells were collected by centrifugation. The supernatant was discarded and the cell pellet was resuspended and counted. Different cell concentrations (5˜10×10^4 cells/mL) were prepared according to the growth cycle of each cell line and then seeded on a 96-well plate (Corning), 100 μL/well. The cells were incubated overnight at 37° C., 5% CO2. The compounds were added to the cells on the second day with 2 wells in parallel. The final concentration of organic solvent shall not exceed 1%. The cells were continually incubated for 3 to 5 days, and then subjected to MTT assay.
(§4) The compound of the present invention and the control compound were dissolved in DMSO (Sigma) respectively, with the purity of more than 98%. The compound was stored in a concentration of 10 mM at −20° C. and diluted to 2- or 10-fold series prior to use.
(§5) Dojindo CCK8 reagent kit was used as MTT assay. THERMO […] FC meter was used as microplate reader.
(§6) For adherent cells, culture medium was removed and immediately replaced with the fresh prepared medium which contains 10% CCK8 reagent (100 μL/well). For the suspension cells, CCK8 was directly added to 10% of the final concentration. The cells were continually incubated for 1˜4 h. When a dark yellow color could be observed in the solvent control wells, the absorbance value at OD450 nm was measured and the cell growth rate was calculated according to the following formula: Cell Growth Rate (%)=100*(T−T0)/(C−T0) T=optical density of drug treatment cell well—optical density of blank control well; T0=optical density of cell well before drug treatment—optical density of blank control well; C=optical density of cell well of solvent control group—optical density of blank control well. The concentration value of 50% inhibition of cell growth (GI50) was calculated according to the drug concentration and cell growth rate curve. The experiment was independently repeated 1˜3 times, and subject to biological statistical analysis. 4. Experimental Results
Tumor cell growth inhibition test was performed by selecting representative compounds (compounds 4, 11, 12, 16, 27, 68, 71, 77, 79, 89 and 116 of the present invention). […]

[3] = tested on: Karpas-299 (expressing NPM-ALK fusion gene); assay: In vitro growth inhibition (GI50), Karpas-299; settings: Homo sapiens; Karpas-299, NPM-ALK
Source text: as §1, §2
Human non-small cell lung cancer cell line NCI-H2228 (expressing EML4-ALK fusion gene, ATCC) and human anaplastic large cell lymphoma cell line Karpas-299 (expressing NPM-ALK fusion gene, ATCC) were cultured in complete medium comprising 1×RPMI1640 (10% FBS), respectively. Neuroblastoma cell line SH-SY5Y (expressing ALK F1174L mutant protein, Shanghai Cell Bank, Chinese Academy of Sciences) was cultured in MEM complete medium (1×MEM, 10% FBS, 1% NEAA, 1 mM sodium pyruvate).
as §3, §4, §5, §6
Tumor cell growth inhibition test was performed by selecting representative compounds (compounds 4, 11, 12, 16, 27, 68, 71, 77, 79, 89 and 116 of the present invention). The initial concentration of the compound was 5,000 nM, then it was serially diluted by 2-fold or 10-fold to 0.01 nM. The GI50 value of each test compound was calculated according to the GI50 assay and calculation method. The experiments were repeated 1 to 3 times, and data were subjected to biological statistical analysis.

| GI50 [2] [nM] | GI50 [3] [nM] | Compound | GI50 [1] [nM] |
| --- | --- | --- | --- |
| > 2500 | – | CC(C)(C)c1cc(NC(=O)Nc2ccc(-n3cnc4cc(O)ccc43)cc2)no1 [Compound 4, 1-(5-tert-butyl-isoxazol-3-yl)-3-[4-(5-hydroxy-benzimidazol-1-yl)-phenyl]-urea] | 100 to 1000 |
| > 2500 | > 2500 | CC(C)(C)c1cc(NC(=O)Nc2ccc(-n3cnc4cc(OCCN5CCOCC5)ccc43)cc2)no1 [Compound 16, 1-(5-tert-butyl-isoxazol-3-yl)-3-{4-[5-(2-morpholin-4-yl-ethoxyl)-benzimidazol-1-yl]-phenyl}-urea] | > 1000 |
| > 2500 | – | CC(C)(C)c1cc(NC(=O)Nc2ccc(-n3cnc4ccc(OCCN5CCOCC5)cc43)cc2)no1 [Compound 27, 1-(5-tert-butyl-isoxazol-3-yl)-3-{4-[6-(2morpholin-4-yl-ethoxyl)-benzimidazol-1-yl]-phenyl}-urea] | > 1000 |
| > 2500 | 1880 | CC(C)(C)c1cc(NC(=O)Nc2ccc(-n3cnc4ccccc43)cc2)[nH]n1 [Compound 68, 1-(4-benzimidazol-1-yl-phenyl)-3-(5-tert-butyl-2H-pyrazol-3-yl)-urea] | > 1000 |
| > 2500 | > 2500 | COc1ccc2c(c1)ncn2-c1ccc(NC(=O)Nc2cc(C(C)(C)C)n[nH]2)cc1 [Compound 71, 1-(5-tert-butyl-2H-pyrazol-3-yl)-3-[4-(5-methoxyl-benzimidazol-1-yl)-phenyl]-urea] | > 1000 |
| > 2500 | > 2500 | CC(C)(C)c1cc(N)n(C(=O)Nc2ccc(-n3cnc4ccccc43)cc2)n1 [Compound 116, 5-amino-3-tert-butyl-pyrazol-1-carboxylic acid (4-benzimidazol-1-yl-phenyl)-amide] | > 1000 |

The remaining lines, values behind:

| Compound | GI50 [2] [nM] | GI50 [3] [nM] | GI50 [1] [nM] |
| --- | --- | --- | --- |
| CC(C)(C)c1cc(NC(=O)Nc2ccc(-n3cnc4cc(OCCO)ccc43)cc2)no1 [Compound 11, 1-(5-tert-butyl-isoxazol-3-yl)-3-{4-[5-(2-hydroxy-ethoxyl)-benzimidazol-1-yl]-phenyl]-urea] | > 2500 | – | > 1000 |
| COCCOc1ccc2c(c1)ncn2-c1ccc(NC(=O)Nc2cc(C(C)(C)C)n[nH]2)cc1 [Compound 77, 1-(5-tert-butyl-2H-pyrazol-3-yl)-3-{4-[5-(2-methoxyl-ethoxyl)-benzimidazol-1-yl]-phenyl}-urea] | > 2500 | > 2500 | > 1000 |
| CC(C)(C)c1cc(NC(=O)Nc2ccc(-n3cnc4cc(OCCO)ccc43)cc2)[nH]n1 [Compound 79, 1-(5-tert-butyl-2H-pyrazol-3-yl)-3-{4-[5-(2-hydroxy-ethoxyl)-benzimidazol-1-yl]-phenyl]urea] | > 2500 | > 2500 | > 1000 |
| CC(C)(C)c1cc(NC(=O)Nc2ccc(-n3cnc4cc(OCCN5CCOCC5)ccc43)cc2)[nH]n1 [Compound 89, 1-(5-tert-butyl-2H-pyrazol-3-yl)-3-{4-[5-(2-morpholin-4-yl-ethoxyl)-benzimidazol-1-yl]-phenyl}-urea] | > 2500 | > 2500 | 100 to 1000 |
